These results are taken from patent US12297176B2, “Compounds and methods for inhibiting EMT pathways to treat cancer, organ fibrosis and metabolic disorders” (University of Pittsburgh—Of the Commonwealth System of …, priority 2017, dated 2025).

One series deals with cell migration. The series can be described thus: Cell monolayer scratch, cell migration. The series is classed as cell-based. How it is done: (§1) FIGS. 4A-4C. Inhibition of cell migration, proliferation and resistance to therapy by CPADAML16. FIG. 4A. Cell monolayer scratch depicting inhibition of cell migration by CPADAML16. FIG. 4B. Effect on cell proliferation measured after 5 days of incubation. FIG. 4C. Cell response to doxorubicin was measured in the presence and absence of CPADAML16. Data in FIG. 4C represent average of three determinations ±SE.

Another series deals with Lats1. The series can be described thus: Activation (phosphorylation) of Hippo core kinase Lats1. The series is classed as cell-based. From the text:
(§2) FIGS. 2A-2D. Putative mechanism. FIG. 2A. Effect of CPADAML16 on Hippo pathway transduces YAP, TAZ and TEAD measured by Western blot. FIG. 2B. Possible signaling pathways leading to degradation of TAZ. The effects of CPADAML16 on the Mst/Lats kinases and the Akt/GSK3 beta axis are shown in FIGS. 2C and 2D, respectively.
(§3) There are three possibilities by which this might occur (FIG. 2B): 1) through activation Mst/Lats, 2) inhibition of Akt or 3) activation of AMPK. […] In light of recent findings that TAZ is also target of the GSK3 beta associated destruction complex, we reasoned that CPADAML16 may act directly or indirectly to activate this complex. […] These effects were concentration and time dependent and valid in various cell lines […]. […] Together these findings identified AMPK as a novel target of CPADAML16, shedding light on a new mechanism by which this compound could signal for TAZ degradation and inhibition of Hippo signaling.

Another series deals with GSK3 beta. In words: Phosphorylation of GSK3. Type of series: cell-based. To be noted: inhibited phosphorylation = induced activation.
Description: as §2, §3

For series [1], the system named is three melanoma and one breast cancer cell lines. In words: Cell proliferation after 5 days of incubation. Type of series: cell-based. How it is done:
as §1

The next series deals with Wnt signaling. The series can be described thus: Wnt pathway luciferase reporter in 293 cells. Type of series: cell-based. The settings on record: 24 hours. How it is done: (§4) FIGS. 1A-1C. CPADAML16 is a common inhibitor of Wnt (FIG. 1C), TGF beta (FIG. 1B), and Hippo (FIG. 1A). 293 cells were transfected with luciferase reporters corresponding to each pathway and then exposed to CPADAML16, the Wnt inhibitor Pyrvinium (PYR) or the TGF beta inhibitor SB-431 at the indicated concentrations. After 24 hours, the cells were lysed and luciferase activity measured. Data represents average of three replicates ±SE.
(§5) By comparison, none of Wnt or TGF beta inhibitors had affected the Hippo pathway reporter. Based on this, CPADAML16 may represent a unique candidate molecule to target simultaneously the Hippo, Wnt and TGF beta pathways.

The test system of the next series is YAP. The series can be described thus: Western blot of Hippo pathway transducers: YAP. Type of series: cell-based.
Description: as §2, §3

A further series concerns Akt. The series can be described thus: Phosphorylation of Akt. Type of series: cell-based.
Description: as §2, §3

The subject of another series is TEAD. The series can be described thus: Western blot of Hippo pathway transducers: TEAD. The series is classed as cell-based.
Description: as §2, §3

Series [2] can be described thus: Body weight and signs of toxicity in xenograft mice. The series is classed as in vivo, nude mice (strain CD1). To be noted: WM266 xenograft mice. How it is done:
(§6) FIGS. 5A-5B. Effect of CPADAML16 (20 mg/kg) on tumor growth (FIG. 5A) and body weight (FIG. 5B). Data represents 7 replicates ±SE.
(§7) Experiments were carried out to analyse the anti-tumor activity and safety of CPADAML16 in mice bearing xenograft tumors. For this, nude mice (strain CD1) were sub-cutaneously inoculated with melanoma cells WM266 and after tumors became palpable, they were randomized into control and treatment groups and received 3 injections (starting on day 15 and separated by three days) of vehicle (control group) or CPADAML16 dissolved in the vehicle solution (treatment groups). Tumor volumes and body weight were measured and mice evaluated for signs of toxicity on a daily basis. At the end of experiments, the animals were sacrificed and tumors harvested to determine if molecular targets of CPADAML16 were altered.

The next series concerns TAZ. The series can be described thus: Western blot of Hippo pathway transducers: TAZ. Type of series: cell-based.
Description: as §2, §3

The test system of a further series is Hippo pathway. In words: Hippo pathway luciferase reporter in 293 cells. The series is classed as cell-based. The settings on record: 24 hours. The procedure:
as §4
The present disclosure concerns the discovery of small molecules inhibitors of major EMT pathways particularly those mediated by TGF beta, Wnt and Hippo. These pathways are known to play key roles in the induction of epithelial-mesenchymal transition (EMT) a cellular process responsible for cancer metastasis, resistance to therapy and organ fibrosis. […] In a search for putative inhibitors of the Hippo pathway, a luciferase reporter system was used to screen a series of chemical compounds. […] CPADAML16 suppressed cancer cell ability to undergo EMT, to proliferate and to become drug resistant. Investigation of the underlying mechanism led to the finding that CPADAML16 induces degradation of the Hippo transducer TAZ mainly by activating AMPK upstream of the GSK3 beta associated degradation complex. CPADAML16 exerted a strong anti-tumor activity in a xenograft mice model with no noticeable toxicity. […]

The next series relates to MST1. In words: Activation (phosphorylation) of Hippo core kinase MST1. Type of series: cell-based.
Description: as §2, §3

Another series has as its system melanoma cells WM266. In words: Anti-tumor activity in mice bearing xenograft tumors. Type of series: in vivo, nude mice (strain CD1). The settings on record: 20 mg/Kg, 3 injections, end of experiment. The procedure:
as §6, §7

In the next series the test system is AMPK. The series can be described thus: Phosphorylation of AMPK at threonine 172. The series is classed as cell-based.
Description: FIGS. 3A-3G. Effect of CPADAML16 on […]. FIGS. 3A and 3B. Dose and time dependent effects of CPADAML16 on phosphorylation of AMPK. FIG. 3C. Effect of AICAR on phosphorylation of AMPK. FIG. 3D. Effect of CPADAML16 on phosphorylation of AMPK downstream target ACC. FIGS. 3E-3G. Confirmation CPADAML16-induced AMPK phosphorylation in different cell lines.
as §3

For another series, the system named is melanoma cell. In words: Cell response to doxorubicin with and without compound. Type of series: cell-based. The procedure:
as §1

The next series deals with TGF beta signaling. In words: TGF beta pathway luciferase reporter in 293 cells. The settings on record: 24 hours. Type of series: cell-based. The procedure:
as §4, §5

As to `CCCCCOc1ccccc1C(=O)c1cc(C(=O)OCC)c(=O)n(Cc2ccccc2)c1` [CPADAML16, 3-Ethoxycarbonyl-5-(o-pentyloxybenzoyl)-1-(benzyl)pyridin-2-one], the cell migration entry with cell migration is “strongly inhibits”. Also, the “phosphorylation of Lats1” value with Lats1 is “did not affected phosphorylation”. For the same compound, in the series on GSK3 beta, the “phosphorylation of GSK3” value is recorded as “inhibited phosphorylation”. Besides, the proliferation result in series [1] is given as “strongly inhibits”. In addition, in the series on Wnt signaling, the “Wnt signaling reporter luciferase activity” value is reported as “remarkably inhibited”. Moreover, the YAP levels entry in the series on YAP is given as “largely unaltered”. The “phosphorylation of Akt” value in the series on Akt is given as “not due to reduced phosphorylation of Akt”. The TEAD levels result in the series with TEAD was “largely unaltered”. Besides, the body weight result in [2] (20 mg/kg) is “did not change significantly”. In series [2] (evaluated daily), the “health / signs of toxicity” value is “in good health throughout the experiment”. The Taz levels result with TAZ is “reduced in a concentration dependent manner”. Also, the “Hippo pathway reporter luciferase activity” value with Hippo pathway is “remarkable inhibitory activity”. In the series on MST1, the “phosphorylation of MST1” value is listed as “did not affected phosphorylation”. The tumor growth inhibition result with melanoma cells WM266 is listed as “about 90%”. Besides, the “potency of AMPK activation compared with AICAR” value with AMPK is “more potent than AICAR”. The “phosphorylation of AMPK at threonine 172” value in the series on AMPK (concentration and time dependent, various cell lines) was “strongly induced phosphorylation”. Further, the “melanoma cell response to doxorubicin in the presence of the compound” value with melanoma cell is on record as “significantly enhanced”. Further, in the series on TGF beta signaling, the “TGF beta signaling reporter luciferase activity” value is “remarkably inhibited”.
